Measurements from ChEMBL document CHEMBL1201862, “PubChem BioAssay data set” (2004).
Active and inactive are the calls of the source.

Experiments:
[1] = viability loss in THP-1 monocytes – THP-1 cells, cytotoxicity control for Vif-APOBEC3G degradation inhibitor project, dose response (AID 1117359); assay type: functional; conditions: THP-1
Streptokinase A = target: T1, Streptokinase A (Streptococcus pyogenes serotype M1, UniProt P10520); assay: viability-normalized secreted streptokinase activity reduction – plasminogen activation absorbance, OD405, dose response (AID 1914); assay type: functional, Streptococcus pyogenes M1 GAS;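 also: secreted streptokinase activity via plasminogen activation per viability signal from cell pellet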
T1 sequence (P10520 whole entry): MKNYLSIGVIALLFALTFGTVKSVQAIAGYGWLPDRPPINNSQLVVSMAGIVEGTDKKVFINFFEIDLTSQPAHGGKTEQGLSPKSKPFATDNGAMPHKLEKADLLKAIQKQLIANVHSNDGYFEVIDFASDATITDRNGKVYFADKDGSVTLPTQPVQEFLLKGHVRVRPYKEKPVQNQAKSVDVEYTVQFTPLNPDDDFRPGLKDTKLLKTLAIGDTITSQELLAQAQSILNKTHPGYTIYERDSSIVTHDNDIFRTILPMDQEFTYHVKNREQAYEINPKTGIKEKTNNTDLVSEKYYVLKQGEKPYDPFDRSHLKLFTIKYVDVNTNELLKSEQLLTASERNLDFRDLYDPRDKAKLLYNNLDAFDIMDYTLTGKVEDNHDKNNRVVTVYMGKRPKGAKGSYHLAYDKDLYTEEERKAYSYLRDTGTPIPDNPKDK

[2] = target: T2, Calpain-2 catalytic subunit (Sus scrofa, UniProt P43367); assay: m-calpain protease blockers, concentration series – biochemical, fluorogenic peptide substrate, dose response (AID 1420); assay type: functional
T2 sequence (P43367 whole entry): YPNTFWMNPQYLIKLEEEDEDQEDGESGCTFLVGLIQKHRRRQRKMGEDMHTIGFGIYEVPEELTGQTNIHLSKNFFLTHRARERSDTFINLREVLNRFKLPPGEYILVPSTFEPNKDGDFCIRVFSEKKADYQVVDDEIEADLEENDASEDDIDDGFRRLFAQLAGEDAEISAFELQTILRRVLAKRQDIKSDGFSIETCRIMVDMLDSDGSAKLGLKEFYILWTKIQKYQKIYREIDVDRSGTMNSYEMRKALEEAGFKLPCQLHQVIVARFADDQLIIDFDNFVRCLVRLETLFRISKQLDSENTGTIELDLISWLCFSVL

[3] = target: T3, Methionyl-tRNA synthetase, putative (Trypanosoma brucei brucei, UniProt Q38C91); assay type: functional, Trypanosoma brucei brucei strain 927/4 GUTat10.1
T3 sequence (Q38C91 whole entry): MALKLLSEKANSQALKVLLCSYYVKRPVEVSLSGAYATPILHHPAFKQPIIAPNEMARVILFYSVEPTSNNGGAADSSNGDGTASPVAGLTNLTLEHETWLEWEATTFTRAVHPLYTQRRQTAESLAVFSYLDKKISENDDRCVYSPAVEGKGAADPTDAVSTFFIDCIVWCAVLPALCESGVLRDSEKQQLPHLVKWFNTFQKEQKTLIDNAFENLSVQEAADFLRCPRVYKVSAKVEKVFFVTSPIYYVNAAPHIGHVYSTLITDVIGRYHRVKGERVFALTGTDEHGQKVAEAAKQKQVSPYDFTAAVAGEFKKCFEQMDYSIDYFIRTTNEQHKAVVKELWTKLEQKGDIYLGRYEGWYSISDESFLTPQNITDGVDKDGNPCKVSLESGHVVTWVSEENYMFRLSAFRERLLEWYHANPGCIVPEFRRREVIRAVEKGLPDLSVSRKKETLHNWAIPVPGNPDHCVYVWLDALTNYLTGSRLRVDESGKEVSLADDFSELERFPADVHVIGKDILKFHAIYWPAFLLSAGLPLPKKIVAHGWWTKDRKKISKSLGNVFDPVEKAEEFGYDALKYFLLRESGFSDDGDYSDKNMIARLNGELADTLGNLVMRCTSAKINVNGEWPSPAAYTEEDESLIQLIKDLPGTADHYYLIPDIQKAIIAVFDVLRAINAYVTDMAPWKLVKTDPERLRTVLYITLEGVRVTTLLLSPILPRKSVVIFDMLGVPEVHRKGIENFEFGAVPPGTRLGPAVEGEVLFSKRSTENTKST

[4] = target: T3, Methionyl-tRNA synthetase, putative; assay type: functional, Trypanosoma brucei brucei strain 927/4 GUTat10.1; remark: listed apart in the source
Mu-type opioid receptor = Mu-type opioid receptor (Homo sapiens, UniProt P35372); assay type: functional, cell-based;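 also: U2OS cells with beta-arrestin recruitment to OPRM1 by beta-gal complementation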
Mu-type opioid receptor, sequence (P35372 whole entry): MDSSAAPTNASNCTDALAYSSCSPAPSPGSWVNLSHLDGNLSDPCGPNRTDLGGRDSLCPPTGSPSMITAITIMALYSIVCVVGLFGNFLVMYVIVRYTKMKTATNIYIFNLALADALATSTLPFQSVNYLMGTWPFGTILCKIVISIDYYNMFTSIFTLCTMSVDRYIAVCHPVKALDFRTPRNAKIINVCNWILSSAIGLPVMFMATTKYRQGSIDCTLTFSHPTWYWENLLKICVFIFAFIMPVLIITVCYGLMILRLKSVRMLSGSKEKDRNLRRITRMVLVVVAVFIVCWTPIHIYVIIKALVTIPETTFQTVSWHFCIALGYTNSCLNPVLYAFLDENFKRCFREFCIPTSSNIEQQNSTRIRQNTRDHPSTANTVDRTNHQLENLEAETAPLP

[5] = target: 5-hydroxytryptamine receptor 2A (Mus musculus, UniProt P35363); assay type: functional, cell-based;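 also: CHO-K1 cells with tagged receptor and beta-arrestin; agonist potency measured as compound-induced activation of the receptor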
5-hydroxytryptamine receptor 2A, sequence (P35363 whole entry): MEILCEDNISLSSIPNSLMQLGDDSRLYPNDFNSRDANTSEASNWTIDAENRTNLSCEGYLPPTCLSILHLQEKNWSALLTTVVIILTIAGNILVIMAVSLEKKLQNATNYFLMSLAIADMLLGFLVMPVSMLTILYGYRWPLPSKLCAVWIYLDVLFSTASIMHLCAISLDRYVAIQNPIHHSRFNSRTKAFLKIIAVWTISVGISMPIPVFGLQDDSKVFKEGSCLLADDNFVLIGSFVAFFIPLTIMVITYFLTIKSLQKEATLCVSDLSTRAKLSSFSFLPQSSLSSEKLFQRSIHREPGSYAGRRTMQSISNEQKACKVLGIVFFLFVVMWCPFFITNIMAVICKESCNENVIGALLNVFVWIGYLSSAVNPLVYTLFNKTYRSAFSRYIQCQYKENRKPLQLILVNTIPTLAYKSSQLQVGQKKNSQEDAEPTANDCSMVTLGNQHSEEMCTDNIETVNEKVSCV

[6] = viability of uninfected HEp-2 cells – cell-based, HTS, cytotoxicity control for RSV inhibitor project, dose response (AID 2410); assay type: functional; conditions: human respiratory syncytial virus
[7] = Counterscreen for inhibitors of Trypanosoma brucei methionyl tRNA synthetase (MetRS): Luminescence-based cell-based high throughput dose response assay to identify compounds that are cytotoxic to Jurkat human T lymphocyte cells.; assay type: functional
[8] = target: T4, Oxysterols receptor LXR-beta (Homo sapiens, UniProt P55055); assay type: functional, cell-based;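 also: Cell-based luminescence dose-response assay of agonist activity at LXR, run as a confirmatory counterscreen to a daf-12 agonist screen; HEK293 cells with Gal4-LXR fusion and GAL4-driven luciferase reporter; agonist potency from rising luciferase signal of a Gal4-LXR reporter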
T4 sequence (P55055 whole entry): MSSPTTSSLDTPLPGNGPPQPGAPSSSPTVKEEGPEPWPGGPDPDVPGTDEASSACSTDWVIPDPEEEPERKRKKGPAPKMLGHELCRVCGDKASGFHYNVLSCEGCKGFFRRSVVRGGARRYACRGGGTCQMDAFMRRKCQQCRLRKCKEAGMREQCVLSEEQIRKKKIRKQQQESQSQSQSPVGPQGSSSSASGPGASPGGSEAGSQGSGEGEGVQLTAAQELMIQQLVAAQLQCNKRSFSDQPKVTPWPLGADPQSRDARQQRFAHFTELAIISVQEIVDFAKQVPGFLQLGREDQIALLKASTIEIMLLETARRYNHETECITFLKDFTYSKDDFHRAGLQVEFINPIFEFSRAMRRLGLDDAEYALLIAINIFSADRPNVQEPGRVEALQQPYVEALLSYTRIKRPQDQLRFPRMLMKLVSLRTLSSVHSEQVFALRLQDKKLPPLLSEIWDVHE

[9] = target: Luciferin 4-monooxygenase (Photinus pyralis, UniProt P08659); assay: inhibition of purified Photinus pyralis luciferase – biochemical, luminescence, dose response (AID 1891)
Luciferin 4-monooxygenase, sequence (P08659 whole entry): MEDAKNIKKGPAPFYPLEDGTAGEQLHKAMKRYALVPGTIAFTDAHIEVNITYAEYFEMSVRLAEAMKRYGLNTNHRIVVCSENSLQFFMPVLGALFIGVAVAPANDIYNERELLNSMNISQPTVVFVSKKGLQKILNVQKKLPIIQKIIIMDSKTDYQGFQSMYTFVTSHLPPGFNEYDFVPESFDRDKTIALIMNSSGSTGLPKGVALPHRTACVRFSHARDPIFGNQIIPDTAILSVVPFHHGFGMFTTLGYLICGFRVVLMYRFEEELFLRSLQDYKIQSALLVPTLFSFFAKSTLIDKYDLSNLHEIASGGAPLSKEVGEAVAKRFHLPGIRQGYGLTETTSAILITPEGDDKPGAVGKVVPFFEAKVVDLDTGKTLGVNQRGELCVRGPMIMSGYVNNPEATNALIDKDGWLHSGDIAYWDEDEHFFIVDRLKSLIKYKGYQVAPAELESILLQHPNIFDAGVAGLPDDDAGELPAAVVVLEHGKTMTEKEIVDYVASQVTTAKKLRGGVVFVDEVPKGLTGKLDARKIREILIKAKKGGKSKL

[10] = Luminescence Cell-Based Dose Confirmation HTS to Identify Inhibitors of Platelet Dense Granule Release. [Related pubchem assays: 1663 (Primary HTS), 1678 (Summary of Project)]; assay type: functional
Protein skinhead-1 = target: T5, Protein skinhead-1 (Caenorhabditis elegans, UniProt P34707); assay type: functional
T5 sequence (P34707 whole entry): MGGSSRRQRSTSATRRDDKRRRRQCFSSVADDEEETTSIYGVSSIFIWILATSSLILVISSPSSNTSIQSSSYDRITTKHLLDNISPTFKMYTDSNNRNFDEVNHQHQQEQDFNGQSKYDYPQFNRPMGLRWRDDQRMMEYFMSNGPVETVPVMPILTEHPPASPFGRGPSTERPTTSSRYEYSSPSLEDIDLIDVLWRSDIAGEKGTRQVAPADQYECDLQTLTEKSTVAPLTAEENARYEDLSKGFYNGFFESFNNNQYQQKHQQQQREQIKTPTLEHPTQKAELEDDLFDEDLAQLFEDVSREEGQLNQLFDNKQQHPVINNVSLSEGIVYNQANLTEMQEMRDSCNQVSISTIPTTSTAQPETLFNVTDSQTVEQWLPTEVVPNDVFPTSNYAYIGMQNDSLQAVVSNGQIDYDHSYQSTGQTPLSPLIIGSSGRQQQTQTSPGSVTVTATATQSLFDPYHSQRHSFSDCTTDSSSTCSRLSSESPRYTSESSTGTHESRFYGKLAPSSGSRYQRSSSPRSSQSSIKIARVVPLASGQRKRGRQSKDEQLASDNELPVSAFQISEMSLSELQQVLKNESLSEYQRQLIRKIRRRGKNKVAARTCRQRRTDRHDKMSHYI

[11] = target: T6, Microphthalmia-associated transcription factor (Homo sapiens, UniProt O75030); assay: reducers of TRPM1 reporter luminescence, concentration series – cell-based, SK-MEL-5, cherry-picked, set 3, MITF inhibitor project, dose response (AID 493073); assay type: functional;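 also: SK-MEL-5 melanoma cells with luciferase driven by the MITF target TRPM1 promoter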
T6 sequence (O75030 whole entry): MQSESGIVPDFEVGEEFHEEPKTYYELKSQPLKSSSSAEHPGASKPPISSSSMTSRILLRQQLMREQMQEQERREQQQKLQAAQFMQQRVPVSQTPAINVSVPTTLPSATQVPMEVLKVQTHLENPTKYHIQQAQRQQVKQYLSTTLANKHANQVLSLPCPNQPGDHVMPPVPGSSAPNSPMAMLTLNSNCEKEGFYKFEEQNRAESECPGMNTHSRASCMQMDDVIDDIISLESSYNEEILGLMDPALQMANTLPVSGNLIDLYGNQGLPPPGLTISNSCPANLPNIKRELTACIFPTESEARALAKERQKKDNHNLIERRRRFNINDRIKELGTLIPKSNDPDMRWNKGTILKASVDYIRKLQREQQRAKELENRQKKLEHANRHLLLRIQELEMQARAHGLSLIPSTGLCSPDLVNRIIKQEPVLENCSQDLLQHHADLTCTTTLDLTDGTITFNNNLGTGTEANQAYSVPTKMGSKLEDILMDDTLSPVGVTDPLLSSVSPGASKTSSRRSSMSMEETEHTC

[12] = blockers of HIV-1 envelope-mediated cell-cell fusion – cherry-pick, dose response (AID 652057); assay type: functional, cell-based
[13] = viability loss in CEM21 cells – cell-based, CellTiter-Glo luminescence, cherry-picked, cytotoxicity control for viral fusion inhibitor project, dose response (AID 652042); assay type: functional;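 also: potency for signal decrease meaning cytotoxicity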
[14] = blockers of HIV-1 ZM109 envelope-driven cell-cell fusion – HeLa effector, CEM target cells, luciferase, cherry-pick, dose response (AID 652058); assay type: functional, cell-based;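 also: luciferase signal from HIV-1 Env mediated cell-cell fusion of effector and target cells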
Paired box protein Pax-8 = Paired box protein Pax-8 (Homo sapiens, UniProt Q06710); assay: PAX8 transcriptional activity inhibition in RMG-I – RMG-I cells, luciferase, cherry-pick, dose response (AID 687027); assay type: functional, cell-based;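 also: luciferase reporter driven by Pax8 target thyroperoxidase promoter measured by SteadyGlo luminescence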
Paired box protein Pax-8, sequence (Q06710 whole entry, the tested form may be a part): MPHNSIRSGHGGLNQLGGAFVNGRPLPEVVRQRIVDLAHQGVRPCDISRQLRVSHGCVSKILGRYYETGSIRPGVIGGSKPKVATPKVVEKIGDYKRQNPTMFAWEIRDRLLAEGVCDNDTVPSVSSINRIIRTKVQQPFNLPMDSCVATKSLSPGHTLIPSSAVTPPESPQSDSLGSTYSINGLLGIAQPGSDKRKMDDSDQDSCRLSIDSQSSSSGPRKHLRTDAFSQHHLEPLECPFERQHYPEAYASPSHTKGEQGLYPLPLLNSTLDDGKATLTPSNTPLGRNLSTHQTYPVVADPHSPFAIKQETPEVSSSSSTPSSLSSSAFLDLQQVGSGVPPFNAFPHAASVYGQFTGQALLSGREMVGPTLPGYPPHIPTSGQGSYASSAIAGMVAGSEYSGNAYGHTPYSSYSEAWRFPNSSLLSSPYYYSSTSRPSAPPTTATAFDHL

[15] = off-target signal loss in HeLa-CEM21 co-culture – HeLa F-luc CTL cells, cherry-picked, counter-screen for HIV-1 Env fusion inhibitor project, dose response (AID 652040); assay type: functional, cell-based;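 also: potency for signal decrease marking cytotoxic or nonspecific inhibition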
[16] = HIV-1 AD8 envelope cell-cell fusion blockers – cherry-pick, dose response (AID 652062); assay type: functional, cell-based;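 also: luciferase signal from cell-cell fusion driven by HIV-1 clade B AD8 Env; potency is for inhibitors of fusion seen as a drop in luminescence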
[17] = general cell-killing toxicity readout – plate reader, dry powder samples, cytotoxicity control for PAX8 inhibitor project, dose response (AID 743021); assay type: functional, cell-based
[18] = A549 cell cytotoxicity, dose response, cytotoxicity control, plate reader, cherry-pick, antagonist series (AID 743412); assay type: functional, cell-based
[19] = toxicity toward HepG2 liver cells – cell-based, plate reader, cherry-pick, antagonist series, cytotoxicity control, dose response (AID 743416); assay type: functional
[20] = blockers of bursicon-stimulated LGR2 cAMP reporter – cell-based, HEK293, CRE-luciferase reporter, cherry pick, set 2, dose response (AID 743343); assay type: functional;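 also: transfected cells were stimulated with diluted bursicon conditioned medium after compound addition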
[21] = blockade of melanocortin 4 receptor signaling – cell-based, plate reader, cherry pick, counter-screen for LGR2 antagonist project, dose response (AID 743444); assay type: functional;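 also: transfected HEK 293 cells stimulated with alpha-MSH peptide; potency of inhibitors of the alpha-MSH evoked signal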
[22] = viability loss in HEK293 cells – cell-based, plate reader, cherry-picked samples, cytotoxicity control, dose response (AID 743446); assay type: functional
[23] = OVCAR8 cell viability loss – plate reader, dry powder samples, PAX8 project, dose response (AID 743197); assay type: functional, cell-based; conditions: OVCAR-8

Structure (SMILES): COc1ccc(Cc2nnc(NC(=O)CSc3ccccc3)s2)cc1
- CC50 [1]: > 40 µM (active)

Structure (SMILES): CC(CNC(=S)Nc1cc(F)cc(F)c1)CSc1ccc(Cl)cc1 (centres undefined)
- EC50 (Streptokinase A): 30 µM (active)
- IC50 [2]: 13.5 µM (not active)
- IC50 [3]: 15.4 µM (inactive)
- IC50 [4]: 23.9 µM (inactive)

Structure (SMILES): COc1ccc(NC(=O)CSc2ccc(-c3ccccn3)nn2)cc1OC
- EC50 (Mu-type opioid receptor): 92.4 µM (inactive)
- EC50 [5]: 0.589 µM (active)

Structure (SMILES): O=C(Nc1ccc(C(=O)O)cc1)/C(=C\C=C\c1ccccc1)NC(=O)c1cccc(Br)c1
- CC50 [6]: 33.7 µM (active)
- IC50 [3]: 60.7 µM (inactive)
- IC50 [7]: 83.3 µM (inactive)
- IC50 [4]: 45.6 µM (inactive)

Structure (SMILES): Fc1ccccc1CN1CCN(c2ncccn2)CC1
- EC50 (Mu-type opioid receptor): 92.5 µM (inactive)
- EC50 [5]: 1.26 µM (active)

Structure (SMILES): Cc1ccnc(NC(=S)NC(=O)c2cccs2)c1
- EC50 [8]: > 67.5 µM (inactive)
- EC50 (cells): > 67.5 µM (inactive)

Structure (SMILES): Cn1c(-c2ccco2)nc2cc3ccccc3cc21
- EC50 [9]: 0.695 µM (active)
- EC50 [10]: 2.69 µM (active)
- IC50 (Protein skinhead-1): 33.9 µM (active)
- EC50 [8]: > 67.5 µM (inactive)
- EC50 (cells): > 67.5 µM (inactive)

Structure (SMILES): COc1ccc(CC2(CO)CCN(C(C)COc3ccccc3)CC2)cc1 (centres undefined)
- EC50 (Mu-type opioid receptor): 92.4 µM (inactive)
- EC50 [5]: 0.115 µM (active)

Structure (SMILES): O=c1c(Cc2ccc(Cl)cc2Cl)c(O)ccn1Cc1ccncc1
- IC50 [3]: 29.2 µM (inactive)
- IC50 [7]: 83.2 µM (inactive)
- IC50 [4]: 20 µM (inactive)

Structure (SMILES): O=C(O)c1ccc(N/N=C/c2ccc3nccnc3c2)cc1
- EC50 [9]: 3.43 µM (active)
- EC50 [10]: 7.25 µM (active)
- AC50 [11]: 0.696 µM (active)
- AC50 [12]: 0.685 µM (active)
- AC50 [13]: 46.5 µM (active)
- AC50 [14]: 6.51 µM (active)
- AC50 (Paired box protein Pax-8): 2.07 µM (active)
- AC50 [15]: 2.97 µM (active)
- AC50 [16]: 2.13 µM (active)
- AC50 [17]: 30.5 µM (active)

Structure (SMILES): COc1ccccc1-c1ccc(OCCCN2CCC(C(O)(c3ccccc3)c3ccccc3)CC2)cc1
- AC50 (Paired box protein Pax-8): 10.2 µM (active)
- AC50 [18]: 5.11 µM (active)
- AC50 [19]: 6.44 µM (active)
- AC50 [20]: 16.3 µM (active)
- AC50 [17]: 28.1 µM (active)
- AC50 [21]: 18.1 µM (active)
- AC50 [22]: 9.63 µM (active)

Structure (SMILES): COc1ccccc1C#Cc1ccc2c(c1)O[C@H](CN(C)Cc1cccnc1)[C@H](C)CN([C@H](C)CO)S2(=O)=O
- AC50 (Paired box protein Pax-8): 8.98 µM (active)
- AC50 [23]: 31.8 µM (active)
